One assay concerns the target T1, human RORγ LBD (Homo sapiens, UniProt P51449).
T1 construct: Human RORγ LBD (residues 262-518); 6×His-tag (N); thrombin cleavage site (N); made in house; host or cells: E. coli BL21-CodonPlus(DE3)-RIL, pET46 Ek/Lic vector
In words: In vitro binding and competition assay (fluorescence polarization, fluorescein-labeled 25-hydroxycholesterol). The method, then: All DNA constructs were generated by PCR-based methodology and confirmed by sequencing. […] IL-17a, IFN-γ, IL-4, and CCR6 protein expression was examined by intracellular or surface staining according to the manufacturer's protocol.
The cells were induced with 0.5 mM IPTG at 16° C. overnight, then collected and lysed in 20 mM Tris-HCl (pH 8.0), 500 mM NaCl, 20 mM imidazole and 10% glycerol. Supernatant was loaded onto a HisTrap™ FF crude 5 mL column on an AKTAxpress HPLC system. The protein was eluted with a 20-500 mM imidazole gradient, dialyzed overnight against 20 mM Tris-HCl (pH 8.0) and 200 mM NaCl, and further purified on a Q Sepharose™ Fast Flow anion exchange column (Amersham Biosciences). The flow-through fraction containing pure RORγ LBD protein was collected, and DTT was added to 10 mM immediately after calculating protein concentration by OD280. For the binding assay, 2 nM Fluorescein-labeled 25-hydroxycholesterol was incubated with purified RORγ LBD protein for 2 hrs at room temperature. Protein concentration was varied by serial dilution in binding buffer (20 mM Tris-HCl (pH 8.0), 200 mM NaCl, 10 mM DTT). Fluorescent polarization signals were measured with a Beacon 2000 (PanVera).
Background: Fluorescence polarisation rises when a labelled molecule tumbles more slowly, as on binding a larger partner.

In a further assay the target is T2, human RORγt (Homo sapiens, UniProt P51449).
T2 construct: expressed in transfected cells; host or cells: human CD4+ T cells (cord blood or adult blood), lentiviral HDV-IRES-GFP/HSA vectors
T2 sequence (P51449 1-497 isoform P51449-2): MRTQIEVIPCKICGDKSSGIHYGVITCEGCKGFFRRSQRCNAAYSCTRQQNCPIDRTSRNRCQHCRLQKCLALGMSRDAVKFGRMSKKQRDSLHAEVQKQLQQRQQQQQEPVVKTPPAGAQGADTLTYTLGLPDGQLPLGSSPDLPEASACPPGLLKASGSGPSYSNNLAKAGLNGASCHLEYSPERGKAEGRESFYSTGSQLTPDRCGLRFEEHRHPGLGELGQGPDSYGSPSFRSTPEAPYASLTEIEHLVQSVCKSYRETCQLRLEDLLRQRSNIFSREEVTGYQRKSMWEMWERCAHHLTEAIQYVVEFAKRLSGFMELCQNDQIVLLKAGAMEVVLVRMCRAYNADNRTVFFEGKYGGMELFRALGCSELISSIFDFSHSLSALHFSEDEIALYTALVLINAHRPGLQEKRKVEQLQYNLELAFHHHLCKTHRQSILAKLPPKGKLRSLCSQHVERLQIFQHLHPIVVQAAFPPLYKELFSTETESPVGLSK
In words: IL-17a induction in human CD4+ T cells transduced with RORαd, RORβ or RORγt. It counts as cell-based. The method, then:
GFP expressing cells were gated for analysis. DMSO, Dig(dhd) (40 μM) or Dig(sal) (10 μM) was added 6-8 h after viral transduction. c, Flow cytometry of the production of IL-17a and IFN-γ by human naive cord blood T cells cultured for six days in the presence of IL-2, IL-23, and IL-1β, with various concentrations of TGF-β. DMSO, Dig(dhd), or Dig(sal) at indicated concentrations (μM) was added 16 h after cytokine addition.
Blood samples were obtained from the New York Blood Center. Mononuclear cells were prepared from buffy coats from healthy adult donors or from cord blood, using FicollPAQUE gradients. CD4^+ T cells were magnetically selected (autoMACS, Miltenyi). Adult memory CD4^+ T cell subsets were further purified as CD3^+CD4^+CD25^− CD45RO^+CCR6^+CD161^+ by cell sorting on a FACSAria (BD). Naive CD4^+ T cells were isolated from cord blood as CD3^+CD4^+CD45RA^+HLA-DR^−CD25^−DAPI^−. Memory cells were activated with anti-CD3/CD28 coated beads (1 bead/cell) in T cell media (see above) supplemented with 100 U/mL IL-2 (Peprotech), 10 ng/mL IL-1b and 10 ng/mL IL-23 (eBioscience). Naive cells were activated with anti-CD3/CD28 beads and cultured with the same cytokines, and TGF-b (0, 0.1, 1, or, 10 ng/mL) (Peprotech), in XVIVO-20 (Lonza) media. […] Naive CD4^+ T cells, cultured in XVIVO-20 media supplemented 100 U/mL IL-2 (Peprotech), were transduced with RORad-IRES-GFP or RORγt-IRES-GFP on day 1 and analyzed on day 6. GFP expressing cells were gated for analysis. DMSO or compounds were added 6-8 hours after the viral transduction.
Blood samples were obtained from the New York Blood Center. Mononuclear cells were prepared from buffy coats from healthy adult donors or from cord blood, using FicollPAQUE gradients. CD4^+ T cells were magnetically selected (autoMACS, Miltenyi). Adult memory CD4+ T cell subsets were further purified as CD3^+CD4^+CD25^−CD45RO^+CCR6^+CD161^+ by cell sorting on a FACSAria (BD). […] Naive CD4+ T cells, cultured in XVIVO-20 media supplemented with 100 U/mL IL-2 (Peprotech), were transduced with RORαd-IRES-GFP or RORγt-IRES-GFP on day 1 and analyzed on day 6. […]

The target in the next assay is T3, human androgen receptor (Homo sapiens, UniProt P10275).
T3 construct: expressed in transfected cells; host or cells: Drosophila S2 cells, plasmid pMK33-hAR
In words: S2 cell human androgen receptor reporter. It is filed as cell-based.

For assay [1], the system named is experimental autoimmune encephalomyelitis (EAE). Nature of the assay: Active EAE (MOG35-55/CFA) in C57BL/6 mice. It counts as in vivo, mouse.
Assay [2] concerns Th17 cell transfer-mediated EAE. Nature of the assay: Th17 cell transfer-mediated (passive) EAE. To be noted: daily from day 2, RAG-2-deficient mice. It counts as in vivo, mouse.

Molecules are shown by their SMILES. Where two headings read alike, the source gives them in different places.

One may read the IC50 as the concentration needed to halve the response being measured.

T3 sequence (P10275 whole entry): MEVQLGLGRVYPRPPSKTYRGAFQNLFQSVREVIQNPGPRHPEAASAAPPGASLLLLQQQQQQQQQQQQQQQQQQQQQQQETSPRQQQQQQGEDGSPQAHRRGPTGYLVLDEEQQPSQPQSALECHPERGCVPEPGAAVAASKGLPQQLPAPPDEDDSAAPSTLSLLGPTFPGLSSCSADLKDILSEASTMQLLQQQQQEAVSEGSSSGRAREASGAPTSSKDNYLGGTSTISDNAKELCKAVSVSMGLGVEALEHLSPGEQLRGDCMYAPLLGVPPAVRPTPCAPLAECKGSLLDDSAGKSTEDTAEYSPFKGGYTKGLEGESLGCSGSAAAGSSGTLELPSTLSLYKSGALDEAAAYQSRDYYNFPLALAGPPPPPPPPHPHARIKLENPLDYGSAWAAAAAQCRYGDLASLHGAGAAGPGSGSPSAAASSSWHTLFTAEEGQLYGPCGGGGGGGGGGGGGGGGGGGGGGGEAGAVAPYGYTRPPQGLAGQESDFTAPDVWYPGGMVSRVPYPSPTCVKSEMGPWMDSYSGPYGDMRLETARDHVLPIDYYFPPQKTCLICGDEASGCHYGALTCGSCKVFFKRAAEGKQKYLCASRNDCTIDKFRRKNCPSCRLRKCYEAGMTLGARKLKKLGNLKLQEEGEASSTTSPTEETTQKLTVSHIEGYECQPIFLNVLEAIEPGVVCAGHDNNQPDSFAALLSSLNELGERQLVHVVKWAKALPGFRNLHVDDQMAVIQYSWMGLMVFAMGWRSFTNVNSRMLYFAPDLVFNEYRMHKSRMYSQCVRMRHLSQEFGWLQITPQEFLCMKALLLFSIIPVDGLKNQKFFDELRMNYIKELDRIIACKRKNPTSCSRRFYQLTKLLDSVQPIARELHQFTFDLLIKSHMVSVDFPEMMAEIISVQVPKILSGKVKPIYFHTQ

At human RORγ LBD, `CC1O[C@@H](OC2C(C)O[C@H](OC3C(C)O[C@@H](O[C@H]4CC[C@@]5(C)[C@H](CC[C@@H]6[C@@H]5C[C@@H](O)[C@]5(C)[C@@H](C(CO)CCO)CC[C@]65O)C4)C[C@H]3O)C[C@H]2O)C[C@@H](O)C1O` (stereo partly shown) [Compound 13, 20,22-Dihydrodigoxin-21,23-diol] had an IC50 of 12 µM. For the same compound, the “RORγt-mediated IL-17a induction (versus RORαd)” value on human RORγt (40 μM, FIG. 3b) is recorded as “selectively suppressed”.

With `C[C@H]1O[C@@H](O[C@H]2[C@@H](O)C[C@H](O[C@H]3[C@@H](O)C[C@H](O[C@H]4CC[C@@]5(C)[C@H](CC[C@@H]6[C@@H]5C[C@@H](O)[C@]5(C)[C@@H](C7=CC(=O)OC7)CC[C@]65O)C4)O[C@@H]3C)O[C@@H]2C)C[C@H](O)[C@@H]1O` [Digoxin], on human RORγ LBD (in vitro competition assay, human RORγ LBD, read-out: IC50, displacement of fluorescein-labeled 25-hydroxycholesterol), the IC50 amounted to 4.1 µM. Besides, the “inhibition of human androgen receptor activity” value at human androgen receptor is listed as “did not inhibit”. The “EAE onset and severity of progression” value in assay [1] (IP daily from day 2) was “not only delayed onset, but also reduced severity”. Further, the “percentage of IFN-γ-producing Th1 cells infiltrating the spinal cord” value in assay [1] (compared to DMSO-treated mice) is given as “approximately the same”. In assay [1] (compared to DMSO-treated mice, day 21), the “reduction of percentage of IL-17-producing T cells infiltrating the spinal cord” value is recorded as “more than 50%”. Also, the “total number of mononuclear cells infiltrating the spinal cord” value in assay [1] (mouse, in vivo) is “markedly reduced”. Moreover, the “onset and severity of Th17 cell transfer-mediated EAE” value in assay [2] is “delayed onset and reduced severity”. The “RORαd-, β- or γt-mediated induction of IL-17a” value at human RORγt (human T cells expressing murine Na+/K+-ATPase) is given as “inhibited only RORγt-mediated induction of IL-17a”.
